Measured values as given in ChEMBL document CHEMBL5665443, “Enzyme Inhibitor Single Concentration assay results for EUbOPEN Chemogenomics Library” (2024).

Legend:
[1] = molecular target: Uracil-DNA glycosylase (Homo sapiens) (UniProt P13051); details: Hit No;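 also: UNG excision on a quenched double-stranded DNA oligo probe, with APE1 added for strand incision and turnover, read as fluorescence at 594 nm as strands separate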
Description: Inhibition of UNG by quantifying inhibition of UNG-mediated cleavage and dissociation of quenched duplex DNA oligonucleotides, measured as fluorescence at 594 nm. To generate a functional strand incision and increase turn-over this assay is coupled to APE1.

[2] = molecular target: G/T mismatch-specific thymine DNA glycosylase (Homo sapiens) (UniProt Q13569); details: Hit No;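 also: human TDG cleavage of quenched duplex DNA oligonucleotides coupled to APE1, strand release read as fluorescence at 594 nm, inhibition of TDG activity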
Description: Inhibition of TDG by quantifying inhibition of TDG-mediated cleavage and dissociation of quenched duplex DNA oligonucleotides, measured as fluorescence at 594 nm. To generate a functional strand incision and increase turn-over this assay is coupled to APE1.

[3] = molecular target: T1, Endonuclease 8-like 2 (Homo sapiens) (UniProt Q969S2);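 also: fluorescence at 594 nm reports NEIL2 cutting and release of a quenched double-stranded DNA oligo substrate, reduced signal read as inhibition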
T1 sequence (whole entry): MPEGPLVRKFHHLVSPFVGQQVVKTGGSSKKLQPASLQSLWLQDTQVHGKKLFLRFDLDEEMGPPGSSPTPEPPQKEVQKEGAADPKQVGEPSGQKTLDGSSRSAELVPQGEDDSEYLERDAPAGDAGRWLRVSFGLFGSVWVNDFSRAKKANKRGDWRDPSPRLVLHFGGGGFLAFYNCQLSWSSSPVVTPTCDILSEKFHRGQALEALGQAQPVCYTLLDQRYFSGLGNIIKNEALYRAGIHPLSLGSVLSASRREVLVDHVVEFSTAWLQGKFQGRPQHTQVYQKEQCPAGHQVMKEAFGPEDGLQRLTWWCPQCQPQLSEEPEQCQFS
Description: Inhibition of NEIL2 by quantifying inhibition of NEIL2-mediated cleavage and dissociation of quenched duplex DNA oligonucleotides, measured as fluorescence at 594 nm.

[4] = molecular target: N-glycosylase/DNA lyase (Homo sapiens) (UniProt O15527); details: Hit No;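 also: OGG1 cleavage of a quenched duplex DNA oligonucleotide, coupled to APE1 for strand incision, read as fluorescence at 594 nm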
Description: Inhibition of OGG1 by quantifying inhibition of OGG1-mediated cleavage and dissociation of quenched duplex DNA oligonucleotides, measured as fluorescence at 594 nm. To generate a functional strand incision and increase turn-over this assay is coupled to APE1.

[5] = molecular target: Endonuclease 8-like 1 (Homo sapiens) (UniProt Q96FI4); details: Hit No;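 also: fluorescence at 594 nm from quenched duplex DNA oligonucleotides released by NEIL1 cleavage and strand separation, reported as reduction of this enzyme activity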
Description: Inhibition of NEIL1 by quantifying inhibition of NEIL1-mediated cleavage and dissociation of quenched duplex DNA oligonucleotides, measured as fluorescence at 594 nm.

[6] = molecular target: T2, Adenine DNA glycosylase (Homo sapiens) (UniProt Q9UIF7); details: Hit No;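 also: human MUTYH activity read as 594 nm fluorescence from cleavage and release of a quenched DNA duplex, coupled with APE1 for strand incision, lower signal meaning inhibition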
T2 sequence (whole entry): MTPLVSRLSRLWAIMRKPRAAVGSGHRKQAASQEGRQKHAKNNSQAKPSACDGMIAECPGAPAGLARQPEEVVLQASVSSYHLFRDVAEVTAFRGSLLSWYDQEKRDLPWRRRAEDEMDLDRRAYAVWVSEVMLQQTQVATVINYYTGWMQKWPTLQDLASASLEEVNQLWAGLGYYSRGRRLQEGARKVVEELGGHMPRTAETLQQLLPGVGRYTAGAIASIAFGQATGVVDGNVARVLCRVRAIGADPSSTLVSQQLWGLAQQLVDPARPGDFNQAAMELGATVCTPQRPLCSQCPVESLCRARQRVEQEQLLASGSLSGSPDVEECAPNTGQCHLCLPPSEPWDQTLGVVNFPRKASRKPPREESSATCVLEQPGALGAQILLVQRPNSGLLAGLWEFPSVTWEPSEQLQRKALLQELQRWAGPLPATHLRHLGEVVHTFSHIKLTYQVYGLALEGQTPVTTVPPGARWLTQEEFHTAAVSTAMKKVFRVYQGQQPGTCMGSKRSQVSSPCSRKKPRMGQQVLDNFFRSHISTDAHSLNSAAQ
Description: Inhibition of MUTYH by quantifying inhibition of MUTYH-mediated cleavage and dissociation of quenched duplex DNA oligonucleotides, measured as fluorescence at 594 nm. To generate a functional strand incision and increase turn-over this assay is coupled to APE1.

[7] = molecular target: T3, Single-strand selective monofunctional uracil DNA glycosylase (Homo sapiens) (UniProt Q53HV7); details: Hit No;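 also: enzymatic SMUG1 assay coupled with APE1, reading fluorescence at 594 nm released when a quenched double-stranded DNA oligonucleotide substrate is cleaved and separated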
T3 sequence (whole entry): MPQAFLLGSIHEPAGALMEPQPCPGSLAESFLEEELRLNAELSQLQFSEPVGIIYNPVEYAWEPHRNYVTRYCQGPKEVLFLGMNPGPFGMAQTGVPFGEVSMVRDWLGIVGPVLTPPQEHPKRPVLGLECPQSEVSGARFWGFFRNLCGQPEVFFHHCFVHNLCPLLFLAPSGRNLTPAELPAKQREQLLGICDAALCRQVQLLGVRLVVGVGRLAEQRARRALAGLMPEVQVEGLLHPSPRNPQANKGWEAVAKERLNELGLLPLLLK
Description: Inhibition of SMUG1 by quantifying inhibition of SMUG1-mediated cleavage and dissociation of quenched duplex DNA oligonucleotides, measured as fluorescence at 594 nm. To generate a functional strand incision and increase turn-over this assay is coupled to APE1.

[8] = molecular target: Methyl-CpG-binding domain protein 4 (Homo sapiens) (UniProt O95243); details: Hit No;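 also: MBD4 activity read as fluorescence at 594 nm from cleavage and release of a quenched duplex DNA oligonucleotide, with APE1 coupled to incise the strand and raise turnover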
Description: Inhibition of MBD4 by quantifying inhibition of MBD4-mediated cleavage and dissociation of quenched duplex DNA oligonucleotides, measured as fluorescence at 594 nm. To generate a functional strand incision and increase turn-over this assay is coupled to APE1.

[9] = Compound Concentration 10.0 uM, Hit No
[10] = Compound Concentration 1.0 uM, Hit No

Chain of N-glycosylase/DNA lyase (Homo sapiens) (O15527 whole entry): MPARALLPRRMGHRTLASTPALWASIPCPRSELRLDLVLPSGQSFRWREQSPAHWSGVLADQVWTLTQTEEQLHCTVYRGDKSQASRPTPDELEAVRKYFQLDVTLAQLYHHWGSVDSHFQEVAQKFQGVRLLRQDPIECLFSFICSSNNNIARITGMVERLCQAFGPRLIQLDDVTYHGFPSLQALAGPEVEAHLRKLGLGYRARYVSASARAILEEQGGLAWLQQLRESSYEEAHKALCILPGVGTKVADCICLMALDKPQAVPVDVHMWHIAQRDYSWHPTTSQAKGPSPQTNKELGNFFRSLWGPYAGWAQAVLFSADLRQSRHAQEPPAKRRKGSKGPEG
Chain of Uracil-DNA glycosylase (Homo sapiens) (P13051 whole entry): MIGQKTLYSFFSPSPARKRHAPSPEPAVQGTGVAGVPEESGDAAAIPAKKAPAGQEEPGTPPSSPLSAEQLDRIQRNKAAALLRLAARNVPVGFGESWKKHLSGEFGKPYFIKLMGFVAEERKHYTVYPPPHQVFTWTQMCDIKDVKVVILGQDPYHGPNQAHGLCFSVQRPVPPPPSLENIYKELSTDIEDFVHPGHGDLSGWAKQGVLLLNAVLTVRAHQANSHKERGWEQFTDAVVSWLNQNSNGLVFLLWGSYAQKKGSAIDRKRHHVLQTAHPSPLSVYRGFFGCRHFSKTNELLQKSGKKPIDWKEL
Chain of G/T mismatch-specific thymine DNA glycosylase (Homo sapiens) (Q13569 whole entry): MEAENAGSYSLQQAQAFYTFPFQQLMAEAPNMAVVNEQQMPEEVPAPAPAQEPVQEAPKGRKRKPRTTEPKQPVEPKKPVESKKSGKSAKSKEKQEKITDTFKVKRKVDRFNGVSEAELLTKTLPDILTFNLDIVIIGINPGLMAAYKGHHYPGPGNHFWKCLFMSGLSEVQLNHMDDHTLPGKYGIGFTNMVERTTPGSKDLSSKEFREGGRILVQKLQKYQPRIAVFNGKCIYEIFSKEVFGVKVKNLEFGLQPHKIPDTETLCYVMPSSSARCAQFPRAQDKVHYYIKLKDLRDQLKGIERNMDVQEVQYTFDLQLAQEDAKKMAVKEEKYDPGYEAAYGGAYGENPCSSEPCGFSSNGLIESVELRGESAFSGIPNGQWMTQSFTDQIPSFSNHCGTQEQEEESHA
Chain of Methyl-CpG-binding domain protein 4 (Homo sapiens) (O95243 whole entry, the tested form may be a part): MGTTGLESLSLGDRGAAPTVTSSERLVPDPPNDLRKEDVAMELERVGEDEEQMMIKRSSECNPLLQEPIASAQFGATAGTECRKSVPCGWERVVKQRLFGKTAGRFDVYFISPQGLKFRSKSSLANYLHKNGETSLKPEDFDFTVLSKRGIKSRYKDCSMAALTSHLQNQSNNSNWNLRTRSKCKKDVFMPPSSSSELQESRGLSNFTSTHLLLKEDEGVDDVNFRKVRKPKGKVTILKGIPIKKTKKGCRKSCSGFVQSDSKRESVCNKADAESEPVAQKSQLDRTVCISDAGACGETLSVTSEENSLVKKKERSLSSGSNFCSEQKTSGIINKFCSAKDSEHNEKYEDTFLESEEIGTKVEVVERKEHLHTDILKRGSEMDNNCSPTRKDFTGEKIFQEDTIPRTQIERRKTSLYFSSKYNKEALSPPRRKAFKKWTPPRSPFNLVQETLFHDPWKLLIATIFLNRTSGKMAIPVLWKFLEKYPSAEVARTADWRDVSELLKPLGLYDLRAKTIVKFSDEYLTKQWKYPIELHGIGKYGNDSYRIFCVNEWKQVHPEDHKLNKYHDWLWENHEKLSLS
Chain of Endonuclease 8-like 1 (Homo sapiens) (Q96FI4 whole entry): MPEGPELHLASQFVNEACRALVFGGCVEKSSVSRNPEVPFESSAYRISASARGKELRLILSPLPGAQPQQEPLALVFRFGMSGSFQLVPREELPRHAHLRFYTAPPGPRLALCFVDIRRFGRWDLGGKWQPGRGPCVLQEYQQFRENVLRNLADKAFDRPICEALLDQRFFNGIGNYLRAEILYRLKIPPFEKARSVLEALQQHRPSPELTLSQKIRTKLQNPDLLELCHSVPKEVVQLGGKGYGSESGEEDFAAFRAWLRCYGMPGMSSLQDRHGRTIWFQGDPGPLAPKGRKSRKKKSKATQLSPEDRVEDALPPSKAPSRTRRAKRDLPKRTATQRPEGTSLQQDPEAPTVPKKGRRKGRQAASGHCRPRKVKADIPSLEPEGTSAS

Row | SMILES | inhibition ([1]; Compound Concentration 10.0 uM) | inhibition ([2]; Compound Concentration 10.0 uM) | inhibition [3, 9] | inhibition ([4]; Compound Concentration 10.0 uM) | inhibition ([5]; Compound Concentration 10.0 uM) | inhibition ([6]; Compound Concentration 10.0 uM) | inhibition ([7]; Compound Concentration 10.0 uM) | inhibition ([8]; Compound Concentration 10.0 uM) | inhibition ([1]; Compound Concentration 1.0 uM) | inhibition ([2]; Compound Concentration 1.0 uM) | inhibition [3, 10] | inhibition ([4]; Compound Concentration 1.0 uM) | inhibition ([5]; Compound Concentration 1.0 uM) | inhibition ([6]; Compound Concentration 1.0 uM) | inhibition ([7]; Compound Concentration 1.0 uM) | inhibition ([8]; Compound Concentration 1.0 uM) | inhibition ([3]; Compound Concentration 10.0 uM, Hit Yes)
1 | O=C(NC[C@@H]1[C@H]2CN(C(=O)OCc3cc(C(F)(F)F)cc(C(F)(F)F)c3)C[C@@H]12)c1ccc2[nH]nnc2c1 | -1.24% | 43.8% | -6.36% | 19.9% | -8.32% | -6.99% | 8.85% | 48.7% | – | – | – | – | – | – | – | – | –
2 | Cc1cc(-c2ccnc(Nc3cnn(C)c3)n2)ccc1CNC(=O)N1CC(OC(C)C)C1 | 4.16% | 44.6% | -6.23% | 9.56% | -3.03% | 22.5% | 28.1% | 12.6% | – | – | – | – | – | – | – | – | –
3 | COc1cc(-c2cncc(-c3ccc(N4CCN(C(C)C)CC4)cc3)c2C)cc(F)c1C(N)=O | 5.22% | 38.5% | 1.85% | 10.3% | 5.68% | -6.43% | 31.3% | 0.764% | – | – | – | – | – | – | – | – | –
4 | Cc1nc(C#Cc2cccnc2)cs1 | -6.91% | 4.62% | -1.88% | -7.91% | 1.49% | 5.76% | -8.43% | -0.814% | – | – | – | – | – | – | – | – | –
5 | CC(C)c1c(CN(C)C(C)Cc2ccccc2)n(C)n(-c2ccccc2)c1=O (stereo unspecified) | 1.7% | 100% | -4.57% | 21.4% | 0.921% | 11% | 23.9% | 64.9% | – | – | – | – | – | – | – | – | –
6 | CCOC(=O)c1cc2cc(-c3cc(C(=O)NCc4ccc(C(=O)O)cc4)nn3C)ccc2[nH]1 | – | – | – | – | – | – | – | – | -2.54% | 41.7% | 11.2% | 9.53% | -4.68% | -1.36% | 6.69% | 61% | –
7 | Nc1cnc(N2CCc3cc(S(=O)(=O)Nc4c(F)cc(Cl)cc4F)cc(N4CCCC4=O)c32)nc1 | – | – | – | – | – | – | – | – | -1.59% | 41.3% | -0.999% | 0.18% | -8.47% | -0.378% | 6.61% | 55.9% | –
8 | CNCc1ccccc1-c1csc([C@@H](C)Nc2nc(C)nc3cc(OC)c(OC)cc23)c1 | 14.2% | 66.2% | – | 16.5% | -5.89% | 19.2% | 5.31% | 8.88% | – | – | – | – | – | – | – | – | 38%
9 | N#CN1CC[C@@H](C(=O)Nc2nc3c(s2)CN(C(=O)CN=[N+]=[N-])CC3)C1 | 4.95% | 50.9% | -7.63% | 3.62% | 6.22% | -2.56% | 2.3% | 54.3% | – | – | – | – | – | – | – | – | –
10 | O=C(N[C@H]1CCCCC/C=C\C2C[C@@]2(C(=O)O)NC(=O)[C@@H]2C[C@@H](Oc3ccncc3)CN2C1=O)OC1CCCC1 (stereo partly specified) | 4.34% | 61.5% | -0.999% | 25.2% | 2.74% | 1.97% | 20% | 61.8% | – | – | – | – | – | – | – | – | –
11 | CCO[C@@H](Cc1ccc(OCCc2ccc(OS(C)(=O)=O)cc2)cc1)C(=O)O | 1.73% | 43.6% | -6.87% | 7.36% | – | -4.86% | 20.9% | 65.1% | – | – | – | – | – | – | – | – | –
12 | CC(=O)C1=C(C)N(c2cccc(C(F)(F)F)c2)C(=O)N[C@H]1c1ccc(C#N)nc1 | -0.968% | 45.5% | 6.4% | -1.74% | – | -5.95% | 10.2% | 60.5% | – | – | – | – | – | – | – | – | –
13 | CCNC(=O)c1cc2c(N3CCOC[C@@H]3C)ccnc2n1C | -0.625% | 31.4% | -9.42% | 11.4% | – | -5.18% | 6.82% | 67% | – | – | – | – | – | – | – | – | –
